Laboratory results: patent US20230346654A1, “Anhydrous Urea Emulsions” (BAEK CLINICAL INC., priority 2020, published 2023)
Where two headings read alike, the source gives them in different places.

What was measured:
[1] = Assessment of solvents: ability to solubilize urea; conditions: neat solvent
[2] = stated as well-known; cited from earlier work
[3] = Assessment of solvents: gentleness or irritation on skin; conditions: applied to skin; 1,3-propanediol even applied neat, or at 100% concentration
Description: (§1) AA refers to L-ascorbic acid. U refers to urea. % values are wt %.

[4] = Solubility of optional additional components in non-aqueous solvents; format: physicochemical
Description: as §1

[5] = in most solvents; cited from earlier work
[6] = in vivo; cited from earlier work
[7] = concentrations of 0.2%; cited from earlier work

CCCCC(O)CO (stereo not drawn) [1,2-hexanediol]
ability to solubilize urea [1]: moderate

CC(O)CO (stereo not drawn) [1,2-propanediol]
skin irritation and sensitivity [2]: inducing skin irritation and sensitivity | ability to solubilize urea [1]: moderate

CC(O)CCO (stereo not drawn) [1,3-butanediol]
gentleness on skin [3]: relatively gentle on skin

OCCCO [1,3-propanediol]
gentleness on skin [3]: gentleness on skin

OCCCCCO [1,5-pentanediol]
ability to solubilize urea [1]: moderate

COc1cc(CC(C(C)=O)C(C)=O)ccc1O [Acetyl zingerone]
solubility ([4]; in 1,3 propanediol, 1,2 propanediol and 1,3 butanediol at 0.5-1%): readily soluble

O=C(O)CCCCCCCC(=O)O [AzA, Azelaic acid, reference compound]
concentration that can be solubilized ([4]; in 1,3 propanediol): up to 10% | change of solubility in 1,3 propanediol ([4]; in the presence of hydroxyethyl urea): slightly increased | concentration that can be solubilized ([4]; with 10% AA, 5% U in a 1,3 propanediol base): 7.5% | solubility [5]: very poorly soluble

CO[C@H]1CO[C@H]2[C@@H]1OC[C@H]2OC [Dimethyl isosorbide]
ability to solubilize urea [1]: very limited

OCC(O)CO [Glycerin, glycerol (1,2,3-propanetriol)]
ability to solubilize urea [1]: moderate

CC(C)(CO)[C@@H](O)C(=O)NCCCO [Panthenol]
concentration at which inhibition of transepidermal water loss is apparent [6]: ≥ 1%

OCC(O)COCC(O)CO (stereo not drawn) [diglycerin]
ability to solubilize urea [1]: moderate

CC1(C)[C@@H](O[C@H]2O[C@H](C(=O)O)[C@@H](O)[C@H](O)[C@H]2O[C@@H]2O[C@H](C(=O)O)[C@@H](O)[C@H](O)[C@H]2O)CC[C@]2(C)[C@H]3C(=O)C=C4[C@@H]5C[C@@](C)(C(=O)O)CC[C@]5(C)CC[C@@]4(C)[C@]3(C)CC[C@@H]12 [glycyrrhizic acid, Glycyrrhizic acid]
solubility ([4]; in 1,3-propanediol): shows solubility

Madecassoside
solubility ([4]; at a concentration of 0.2% in 1,3 propanediol, 1,2 propanediol and 1,3 butanediol): soluble | ability to reduce erythema (skin redness) [7]: desirable ability to reduce erythema
